Like-named read-outs stand apart in the source and are kept apart here.

For one assay, the target named is AdeB (Acinetobacter baumannii, UniProt Q2FD70). Description: fluorescence polarization titration using the inherent fluorescence of amotosalen ([…]). It is filed as binding. (In general: Polarisation of emitted light reports the rotation of a fluorescent probe.)
The test system of another assay is Burkholderia cenocepacia. Description: microbe, parasite or virus in culture. The arrangement: Broth microdilution MIC in 384-well plates after UVA exposure (2 J/cm2), A600 growth read-out. Particulars: Burkholderia cenocepacia, 20 h, MDRb=Unknown, UVA 365 nm, 2 J/cm2, modal MIC of three or more replicates. The protocol:
(§1) For MIC determination, bacterial stocks frozen at −80°C were streaked onto tryptic soy agar plates containing 5% sheep blood (Remel), and grown overnight at 35°C in ambient air. Colonies were then suspended in 0.9% saline to 0.5 McFarland, measured using a Densicheck (bioMérieux); diluted 1:300 in cation-adjusted Mueller-Hinton broth (BD); and dispensed into 384-well polystyrene plates (Greiner Bio-One) at 50 μL per well with the following exceptions: For MIC determinations with AG100AX strains containing pAdeC and pAdeAB plasmids, −80°C frozen stocks were inoculated directly into non-cation-adjusted Mueller-Hinton broth containing 100 μg/mL ampicillin, 50 μg/mL nourseothricin, 5 mM calcium chloride, and 5 mM magnesium chloride, with or without adeABC induction using 1% L-arabinose and 1.0 mM Isopropyl β-D-1-thiogalactopyranoside (IPTG), and grown overnight at 37°C in 15 mL conical tubes with continual rotation. Bacterial cultures were then adjusted to 0.5 McFarland and diluted 1:300 in the same medium, and dispensed as above. Induction of other cloned efflux pumps was with 1% L-arabinose (or 0.5% L-arabinose for cloned P. aeruginosa pumps) in the absence of supplemental divalent cations. Lastly, P. aeruginosa PAO1 strains were dispensed into 96-well plates to avoid skipped-well effects observed in 384-well plate format. Filled microplates were centrifuged at 1250 rcf for 4 min to ensure the entire inoculum was in continuity with the bottom of the well. Then, 2-fold doubling dilutions of stock solutions of amotosalen, AMT, or 8-MOP supplemented with 0.3% Tween 20 (Sigma-Aldrich) were dispensed into microwells using the HP D300 digital dispensing system (HP, Inc.), as previously described ([87][–][90]), and the microplates were mixed for 5 min on a microplate shaker to ensure complete mixing of psoralens with the inoculum. Microplates were then exposed to UV light in a UV Stratalinker 1800 (Stratagene), retrofitted with UV BL F8T5 CFL 12-inch UVA 365 nm Blacklight Bulbs (Coolspider), and calibrated according to manufacturer’s instructions with an UVA365 UV Light Meter (Amtast) for a total exposure of 2 Joules/cm^2 of UVA, to approximate exposure during platelet pathogen inactivation ([10]). Testing of control antibiotics was performed in an identical fashion, however, without UVA exposure. After incubation at 35°C for 20 h, the A600 was measured using a TECAN M1000 microplate reader. MICs were determined based on a growth inhibition A600 cutoff of 0.06, which is consistent with our prior determinations of Clinical and Laboratory Standards Institute reference standard equivalent, MIC determinations in 384-well plate format ([88], [90], [91]). […] The concentrations of MgCl2 and CaCl2 used were empirically determined previously to be optimal for efflux of minocycline and ethidium bromide (data not shown).

For a further assay, the system named is P. aeruginosa. Briefly: microbe, parasite or virus in culture. The following applies: Pseudomonas aeruginosa, 20 h, UVA 365 nm, 2 J/cm2, modal MIC of three or more replicates. More on the design: Broth microdilution MIC in 384-well plates after UVA exposure (2 J/cm2), A600 growth read-out. The protocol: as §1
The test system of a further assay is Burkholderia multivorans. Briefly: microbe, parasite or virus in culture. The arrangement: Broth microdilution MIC in 384-well plates after UVA exposure (2 J/cm2), A600 growth read-out. The following applies: Burkholderia multivorans, 20 h, read-out: Amotosalen Modal MIC (mM)a, Strain #=BEI NR-20533; MDRb=Unknown; UVA 365 nm, 2 J/cm2; modal MIC of three or more replicates. The protocol: as §1

In assay [1] the test system is Stenotrophomonas maltophilia. Description: microbe, parasite or virus in culture. The arrangement: Broth microdilution MIC in 384-well plates after UVA exposure (2 J/cm2), A600 growth read-out. The following applies: Stenotrophomonas maltophilia, 20 h, UVA 365 nm, 2 J/cm2, modal MIC of three or more replicates. The protocol:
as §1

The test system of a further assay is E. coli. Description: microbe, parasite or virus in culture. The arrangement: Broth microdilution MIC in 384-well plates after UVA exposure (2 J/cm2), A600 growth read-out. The following applies: Escherichia coli, 20 h, UVA 365 nm, 2 J/cm2, modal MIC of three or more replicates. The protocol: as §1
In a further assay the test system is K. pneumoniae. Description: microbe, parasite or virus in culture. More on the design: Broth microdilution MIC in 384-well plates after UVA exposure (2 J/cm2), A600 growth read-out. The following applies: Klebsiella pneumoniae, 20 h, MDRb=Yes, UVA 365 nm, 2 J/cm2, modal MIC of three or more replicates. As for the experimental part:
as §1

A further assay has as its system Burkholderia cepacia. Briefly: microbe, parasite or virus in culture. More on the design: Broth microdilution MIC in 384-well plates after UVA exposure (2 J/cm2), A600 growth read-out. Particulars: Burkholderia cepacia, 20 h, read-out: Amotosalen Modal MIC (mM)a, Strain #=BEI NR-702; MDRb=Unknown; UVA 365 nm, 2 J/cm2; modal MIC of three or more replicates. The protocol:
as §1

The next assay deals with A. baumannii. Description: microbe, parasite or virus in culture. More on the design: Broth microdilution MIC in 384-well plates after UVA exposure (2 J/cm2), A600 growth read-out. Particulars: Acinetobacter baumannii, 20 h, MDRb=Yes, UVA 365 nm, 2 J/cm2, modal MIC of three or more replicates. The protocol:
as §1

Sequence of AdeB (Q2FD70 entry or part of it): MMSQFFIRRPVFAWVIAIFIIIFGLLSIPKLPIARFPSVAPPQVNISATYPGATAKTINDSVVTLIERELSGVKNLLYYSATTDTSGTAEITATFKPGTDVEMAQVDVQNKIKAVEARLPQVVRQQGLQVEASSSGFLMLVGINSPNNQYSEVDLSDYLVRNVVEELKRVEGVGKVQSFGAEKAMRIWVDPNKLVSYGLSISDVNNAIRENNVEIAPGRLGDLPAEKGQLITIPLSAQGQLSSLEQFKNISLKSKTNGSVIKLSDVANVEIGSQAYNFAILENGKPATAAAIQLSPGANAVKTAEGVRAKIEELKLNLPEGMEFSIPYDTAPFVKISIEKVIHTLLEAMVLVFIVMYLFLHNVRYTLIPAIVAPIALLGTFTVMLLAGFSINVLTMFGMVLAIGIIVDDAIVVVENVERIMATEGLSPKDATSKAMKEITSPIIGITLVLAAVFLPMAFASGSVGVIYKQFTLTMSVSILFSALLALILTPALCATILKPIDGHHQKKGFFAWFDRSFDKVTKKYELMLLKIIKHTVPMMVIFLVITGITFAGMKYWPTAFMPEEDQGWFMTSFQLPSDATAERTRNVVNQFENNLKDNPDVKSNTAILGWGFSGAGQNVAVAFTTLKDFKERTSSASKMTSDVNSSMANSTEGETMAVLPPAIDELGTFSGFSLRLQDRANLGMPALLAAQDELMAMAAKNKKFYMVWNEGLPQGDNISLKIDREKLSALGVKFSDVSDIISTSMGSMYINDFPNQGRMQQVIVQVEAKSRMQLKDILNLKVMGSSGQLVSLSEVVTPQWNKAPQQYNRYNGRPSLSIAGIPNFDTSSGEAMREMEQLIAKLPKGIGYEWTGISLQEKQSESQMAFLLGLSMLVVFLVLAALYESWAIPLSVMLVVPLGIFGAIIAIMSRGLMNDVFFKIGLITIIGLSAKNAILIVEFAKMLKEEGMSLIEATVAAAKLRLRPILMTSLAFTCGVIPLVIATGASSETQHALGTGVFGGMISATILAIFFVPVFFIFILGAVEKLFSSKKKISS

In general, Kd refers to the equilibrium constant for the complex coming apart. A higher Kd goes with lower affinity. Take `Cc1oc2c(C)c3oc(=O)cc(C)c3cc2c1COCCN` [amotosalen, 4′-(4-amino-2-oxa)butyl-4,5′,8-trimethylpsoralen]: the Kd at AdeB was determined as 27.9 ± 1.8 µM. Also, the MIC was 0.128 mM in the assay on Burkholderia cenocepacia (read-out: Amotosalen Modal MIC (mM)a, Strain #=BEI NR-701); 0.256 mM in the assay with Burkholderia cenocepacia (read-out: Amotosalen Modal MIC (mM)a, Strain #=BEI NR-20535); less than 0.004 mM in the assay on P. aeruginosa (read-out: Amotosalen Modal MIC (mM)a, Strain #=ATCC 27583e, MDRb=No); more than 0.256 mM in the assay with P. aeruginosa (read-out: Amotosalen Modal MIC (mM)a, Strain #=FDA-CDC 229, MDRb=Yes); 0.128 mM in the assay with P. aeruginosa (read-out: Amotosalen Modal MIC (mM)a, Strain #=FDA-CDC 230, MDRb=Yes); 0.256 mM in the assay with P. aeruginosa (read-out: Amotosalen Modal MIC (mM)a, Strain #=FDA-CDC 232, MDRb=Yes). The MIC with Burkholderia multivorans was more than 0.256 mM; in assay [1] (read-out: Amotosalen Modal MIC (mM)a, Strain #=JEK154), 0.256 mM; in assay [1] (read-out: Amotosalen Modal MIC (mM)a, Strain #=JEK155), 0.064 mM; in the assay on E. coli (read-out: Amotosalen Modal MIC (mM)a, Strain #=ATCC 25922e, MDRb=No), 0.008 mM; in the assay on E. coli (read-out: Amotosalen Modal MIC (mM)a, Strain #=FDA-CDC 0114, MDRb=Yes), 0.128 mM; with E. coli (read-out: Amotosalen Modal MIC (mM)a, Strain #=FDA-CDC 0118, MDRb=Yes), 0.064 mM. The MIC is 0.128 mM in the assay with K. pneumoniae (read-out: Amotosalen Modal MIC (mM)a, Strain #=FDA-CDC 0113); 0.256 mM with K. pneumoniae (read-out: Amotosalen Modal MIC (mM)a, Strain #=FDA-CDC 0146); more than 0.256 mM in the assay on Burkholderia cepacia; 0.064 mM in the assay on A. baumannii (read-out: Amotosalen Modal MIC (mM)a, Strain #=FDA-CDC 0292); 0.128 mM in the assay with A. baumannii (read-out: Amotosalen Modal MIC (mM)a, Strain #=WRAIR 15067).
